Tests used:
[1] = shake flask on a mixture of 185; loss from the water phase only; LC-QTOF peak areas; settings: room
[2] = shake flask on a mixture of 185; loss from the water phase only; LC-Orbitrap peak areas; settings: room

Structure (SMILES) | log partition 1-octanol / HPLC water, unbuffered, traces of methanol / DMSO [1] [log10] | log partition butyl acetate / HPLC water, unbuffered, traces of methanol / DMSO [1] [log10] | log partition chloroform / HPLC water, unbuffered, traces of methanol / DMSO [1] [log10] | log partition cyclohexane / HPLC water, unbuffered, traces of methanol / DMSO [1] [log10] | log partition dichloromethane / HPLC water, unbuffered, traces of methanol / DMSO [1] [log10] | log partition n-hexane / HPLC water, unbuffered, traces of methanol / DMSO [1] [log10] | log partition n-octane / HPLC water, unbuffered, traces of methanol / DMSO [1] [log10] | log partition n-undecane / HPLC water, unbuffered, traces of methanol / DMSO [1] [log10] | log partition oleylalcohol / HPLC water, unbuffered, traces of methanol / DMSO [1] [log10] | log partition toluene / HPLC water, unbuffered, traces of methanol / DMSO [1] [log10] | log partition 1-octanol / HPLC water, unbuffered, traces of methanol / DMSO [2] [log10] | log partition butyl acetate / HPLC water, unbuffered, traces of methanol / DMSO [2] [log10] | log partition chloroform / HPLC water, unbuffered, traces of methanol / DMSO [2] [log10] | log partition cyclohexane / HPLC water, unbuffered, traces of methanol / DMSO [2] [log10] | log partition dichloromethane / HPLC water, unbuffered, traces of methanol / DMSO [2] [log10] | log partition n-hexane / HPLC water, unbuffered, traces of methanol / DMSO [2] [log10] | log partition n-octane / HPLC water, unbuffered, traces of methanol / DMSO [2] [log10] | log partition n-undecane / HPLC water, unbuffered, traces of methanol / DMSO [2] [log10] | log partition oleylalcohol / HPLC water, unbuffered, traces of methanol / DMSO [2] [log10] | log partition toluene / HPLC water, unbuffered, traces of methanol / DMSO [2] [log10]
Nc1cc2c3c(c1)C(c1ccccc1)=N[C@@H](NC(=O)c1cccnc1)C(=O)N3CC2 | 1.4 | 1.224 | 1.953 | -0.8456 | 2.001 | -0.527 | -1.018 | -1.615 | 1.111 | 0.4515 | 1.8 | 1.849 | 1.811 | -0.6201 | 1.949 | -0.5688 | -0.5885 | -0.7259 | 1.341 | 0.4674
CCNC(=O)C1CC(C)CCC1C(C)C (centres unmarked) | 1.736 | 1.72 | 1.704 |  | 1.778 |  |  |  | 1.811 | 1.717 | 0.07926 | -0.1005 | 0.05708 |  | -0.08543 |  |  |  | -0.02549 | -0.1964

Reference: paper PMC10569036
